Legend:
[1] = target: His-GST-TVMV-hRIPK1(1-324) (Homo sapiens (Human), UniProt Q13546); assay: RIPK1 HTRF Binding Assay; settings: HTRF binding, 1 h at rt; read-out: RIPK1 (IC50)
Method: A solution was prepared containing 0.2 nM Anti GST-Tb (Cisbio, 61GSTTLB), 90.6 nM probe and 1 nM His-GST-TVMV-hRIPK1(1-324) in FRET Buffer (20 mM HEPES, 10 mM MgCl2, 0.015% Brij-35, 4 mM DTT, 0.05 mg/mL BSA). Using Formulatrix Tempest, the detection antibody/enzyme/probe solution ([…]) was dispensed into wells of a 1536 plate (Black Low Binding Polystyrene 1536 Plate (Corning, 3724)) containing 10 nL of compounds of interest at appropriate concentration in DMSO. The plate was incubated at rt for 1 h. FRET was measured using the EnVision plate reader (Excitation: 340 nm, Emission: 520 nm/[…]). Total signal (0% inhibition) was calculated from wells containing 10 nL DMSO only.
The coding region of human RIPK1(1-324) flanked by NdeI site at 5′ end and stop codon TGA and XhoI site at 3′ end was codon optimized and gene synthesized at GenScript USA Inc. (Piscataway, N.J.) and subcloned into a modified pFastBacl vector (Invitrogen, Carlsbad, Calif.) with N-terminal His-GST-TVMV tag, to generate His-GST-TVMV-hRIPK1(1-324)-pFB. The fidelity of the synthetic fragment was confirmed by sequencing.

[2] = test system: MLKL phosphorylation in HT29-L23 human colorectal adenocarcinoma cells; assay: MLKL Phosphorylation High-Content Assay; type: cell-based; settings: Homo sapiens, 6 h, necroptosis induced with TNFα, SMAC mimetic and Z-VAD, read-out: pMLKL (IC50)
Method: MLKL Phosphorylation High-Content Assay
HT29-L23 human colorectal adenocarcinoma cells were maintained in RPMI 1640 medium containing 10% heat-inactivated FBS, 1% Pennicilin-Streptomycin and 10 mM HEPES. Cells were seeded at 2,000 cells/well in 384 w tissue culture-treated microplates (Greiner #781090-3B) and incubated at 37° C. (5% CO2/95% O2) for two days. On the day of assay, the cells were treated with test compounds at final concentrations of 6.25 to 0.106 μM for 30 min at 37° C. (5% CO2/95% O2). Necroptopsis was induced using a mixture of human TNFα (35 ng/mL) (Peprotech #300-01A), SMAC mimetic (from US 2015/0322111 A1) (700 nM) and Z-VAD (140 nM) (BD pharmingen #51-6936). Following six hours incubation at 37° C. (5% CO2/95% O2), the cells were fixed with 4% formaldedye (ACROS 11969-0010) for 15 min at room temperature and then permeabilized with phoshpate buffered saline (PBS) containing 0.2% Triton-X-100 for 10 min. MLKL phosporylation was detected using anti-MLKL (phospho S358) antibody (Abcam # ab187091) (1:1000 dilution in Blocking Buffer [PBS supplemented with 0.1% BSA]) with overnight incubation at 4° C. After washing three times in PBS, goat anti-rabbit Alexa-488 (1:1000 dilution) (Life Technologies, A11008) and Hoechst 33342 (Life Technologies, H3570) (1:2000 dilution) in Blocking Buffer were added for 1 h at room temperature. Following another three cycles of washes in PBS, the microplates were sealed, and cellular images were acquired in the Cellomics ArrayScan VTI high-content imager equipped with an X1 camera. Fluorescent images were taken using a 10× objective and the 386-23 BGRFRN_BGRFRN and 485-20 BGRFRN_BGRFRN filter sets, for nuclei and MLKL phosphorylation, respectively. The image sets were analyzed using the Compartmental Analysis Bioapplication software (Cellomics). The level of MLKL phosphorylation was quantified as MEAN_CircRingAvgIntenRatio. […] The IC50 value was defined as the concentration of compound that produces 50% of the maximal inhibition. The data were fitted using the 4-parameter logistic equation to calculate the IC50 and Ymax values.

His-GST-TVMV-hRIPK1(1-324), sequence (Q13546 1-324): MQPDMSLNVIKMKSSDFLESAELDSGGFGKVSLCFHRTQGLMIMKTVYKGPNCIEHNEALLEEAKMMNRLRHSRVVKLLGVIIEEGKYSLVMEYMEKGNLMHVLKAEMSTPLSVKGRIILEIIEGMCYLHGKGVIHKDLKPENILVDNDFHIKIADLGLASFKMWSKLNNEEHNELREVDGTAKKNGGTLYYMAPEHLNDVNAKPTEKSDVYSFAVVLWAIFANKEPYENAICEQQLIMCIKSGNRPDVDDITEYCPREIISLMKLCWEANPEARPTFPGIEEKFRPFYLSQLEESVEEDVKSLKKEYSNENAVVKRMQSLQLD

In the case of COc1nc(C)c(-c2ccc3nc(NC(C)=O)cn3n2)cc1C(=O)NCc1ccccc1OC(C)CO (stereo not drawn) [Example 17, 5-{2-acetamidoimidazo[1,2-b]pyridazin-6-yl}-N-({2-[(1-hydroxypropan-2-yl)oxy]phenyl}methyl)-2-methoxy-6-methylpyridine-3-carboxamide], the IC50 [1] is reported as 0.027 µM and the IC50 [2] is reported as 0.129 µM.
CC(=O)Nc1cn2nc(-c3cnc(C(F)(F)F)c(C(=O)NCc4cc(OC(F)(F)F)ccc4F)c3)ccc2n1 [Example 18, 5-{2-acetamidoimidazo[1,2-b]pyridazin-6-yl}-N-{[2-fluoro-5-(trifluoromethoxy)phenyl]methyl}-2-(trifluoromethyl)pyridine-3-carboxamide] showed an IC50 [1] of 0.145 µM and an IC50 [2] of 0.177 µM.
In the case of COc1nc(C)c(-c2ccc3nc(NC(C)=O)cn3n2)cc1C(=O)NCc1ccccc1OC(F)(F)F [Example 19, 5-{2-acetamidoimidazo[1,2-b]pyridazin-6-yl}-2-methoxy-6-methyl-N-{[2-(trifluoromethoxy)phenyl]methyl}pyridine-3-carboxamide], the IC50 [1] is reported as 0.012 µM and the IC50 [2] is reported as 0.034 µM.
CC(=O)Nc1cn2nc(-c3cnc(C)c(C(=O)NCc4ccccc4OC(C)C)c3)ccc2n1 [Example 20, 5-{2-acetamidoimidazo[1,2-b]pyridazin-6-yl}-2-methyl-N-{[2-(propan-2-yloxy)phenyl]methyl}pyridine-3-carboxamide] showed an IC50 [1] of 0.046 µM and an IC50 [2] of 0.063 µM.
Compound CC(=O)Nc1cn2nc(-c3cncc(C(=O)NCc4ccccc4OC4CCCC4)c3)ccc2n1 [Example 21, N-{[2-(cyclopentyloxy)phenyl]methyl}-5-{2-acetamidoimidazo[1,2-b]pyridazin-6-yl}pyridine-3-carboxamide] has an IC50 [1] of 0.01 µM and an IC50 [2] of 0.029 µM.
COc1ncc(-c2ccc3nc(NC(C)=O)cn3n2)cc1C(=O)NCc1ccccc1OCC1CC1 [Example 22, N-{[2-(cyclopropylmethoxy)phenyl]methyl}-5-{2-acetamidoimidazo[1,2-b]pyridazin-6-yl}-2-methoxypyridine-3-carboxamide] was tested, and the IC50 [1] was 0.004 µM and the IC50 [2] was 0.026 µM.
In the case of COc1ncc(-c2ccc3nc(NC(C)=O)cn3n2)cc1C(=O)NCCC(O)c1ccc(Cl)cc1 (stereo not drawn) [Example 23, N-[3-(4-chlorophenyl)-3-hydroxypropyl]-5-{2-acetamidoimidazo[1,2-b]pyridazin-6-yl}-2-methoxypyridine-3-carboxamide], the IC50 [1] is reported as 0.124 µM and the IC50 [2] is reported as 0.127 µM.
Work on CC(CCNC(=O)c1cccc(-c2ccc3nc(NC(=O)c4ccnc(F)c4)cn3n2)c1)c1ccccc1 (stereo not drawn) [Example 24, 2-fluoro-N-(6-{3-[(3-phenylbutyl)carbamoyl]phenyl}imidazo[1,2-b]pyridazin-2-yl)pyridine-4-carboxamide] yielded an IC50 [1] of 0.005 µM and an IC50 [2] of 0.01 µM.
With COc1ncc(-c2ccc3nc(NC(C)=O)cn3n2)cc1C(=O)NCCC(C)c1ccccc1 (stereo not drawn) [Example 25, 5-{2-acetamidoimidazo[1,2-b]pyridazin-6-yl}-2-methoxy-N-(3-phenylbutyl)pyridine-3-carboxamide] the IC50 [1] was 0.002 µM and the IC50 [2] was 0.009 µM.
With Cc1ncc(-c2ccc3nc(NC(=O)C(C)(C)C#N)cn3n2)cc1C(=O)NCc1ccccc1Sc1ccccc1CO [Example 26, 5-[2-(2-cyano-2,2-dimethylacetamido)imidazo[1,2-b]pyridazin-6-yl]-N-[(2-{[2-(hydroxymethyl)phenyl]sulfanyl}phenyl)methyl]-2-methylpyridine-3-carboxamide] the IC50 [1] was 0.025 µM and the IC50 [2] was 0.192 µM.
In the case of Cc1ncc(-c2ccc3nc(NC(=O)C(C)(C)C#N)cn3n2)cc1C(=O)N[C@H](C)c1cc(OC(F)(F)F)ccc1F [Example 27, 5-[2-(2-cyano-2,2-dimethylacetamido)imidazo[1,2-b]pyridazin-6-yl]-N-[(1R)-1-[2-fluoro-5-(trifluoromethoxy)phenyl]ethyl]-2-methylpyridine-3-carboxamide], the IC50 [1] is reported as 0.109 µM and the IC50 [2] is reported as 0.108 µM.
COc1ncc(-c2ccc3nc(NC(=O)C(C)(C)C#N)cn3n2)cc1C(=O)NCc1cc(OC(F)(F)F)ccc1F [Example 28, 5-[2-(2-cyano-2,2-dimethylacetamido)imidazo[1,2-b]pyridazin-6-yl]-N-{[2-fluoro-5-(trifluoromethoxy)phenyl]methyl}-2-methoxypyridine-3-carboxamide] gave an IC50 [1] of 0.285 µM and an IC50 [2] of 0.248 µM.
With COc1ncc(-c2ccc3nc(NC(=O)C(C)(C)C#N)cn3n2)cc1C(=O)NCc1cc(OCC2CC2)ccc1F [Example 29, 5-[2-(2-cyano-2,2-dimethylacetamido)imidazo[1,2-b]pyridazin-6-yl]-N-{[5-(cyclopropylmethoxy)-2-fluorophenyl]methyl}-2-methoxypyridine-3-carboxamide] the IC50 [1] was 0.257 µM and the IC50 [2] was 0.45 µM.
In the case of CC(=O)Nc1cn2nc(-c3cnc(C(F)(F)F)c(C(=O)NCc4cc(C(F)(F)F)ccc4F)c3)ccc2n1 [Example 30, 5-{2-acetamidoimidazo[1,2-b]pyridazin-6-yl}-N-{[2-fluoro-5-(trifluoromethyl)phenyl]methyl}-2-(trifluoromethyl)pyridine-3-carboxamide], the IC50 [1] is reported as 0.199 µM and the IC50 [2] is reported as 0.341 µM.
CC(=O)Nc1cn2nc(-c3cnc(C(F)(F)F)c(C(=O)NCc4c(F)ccc(F)c4OCC4CC4)c3)ccc2n1 [Example 31, N-{[2-(cyclopropylmethoxy)-3,6-difluorophenyl]methyl}-5-{2-acetamidoimidazo[1,2-b]pyridazin-6-yl}-2-(trifluoromethyl)pyridine-3-carboxamide] showed an IC50 [1] of 0.082 µM and an IC50 [2] of 0.339 µM.
Work on COc1ncc(-c2ccc3nc(NC(=O)CC#N)cn3n2)cc1C(=O)NCc1ccccc1OC(F)(F)F [Example 32, 5-[2-(2-cyanoacetamido)imidazo[1,2-b]pyridazin-6-yl]-2-methoxy-N-{[2-(trifluoromethoxy)phenyl]methyl}pyridine-3-carboxamide] yielded an IC50 [1] of 0.078 µM and an IC50 [2] of 0.177 µM.
Compound COc1ncc(-c2ccc3nc(NC(=O)CC#N)cn3n2)cc1C(=O)NCc1cc(OC(F)(F)F)ccc1F [Example 33, 5-[2-(2-cyanoacetamido)imidazo[1,2-b]pyridazin-6-yl]-N-{[2-fluoro-5-(trifluoromethoxy)phenyl]methyl}-2-methoxypyridine-3-carboxamide] has an IC50 [1] of 0.186 µM and an IC50 [2] of 0.183 µM.
COc1ncc(-c2ccc3nc(NC(=O)CO)cn3n2)cc1C(=O)NCc1cc(C(F)(F)F)ccc1F [Example 34, N-{[2-fluoro-5-(trifluoromethyl)phenyl]methyl}-5-[2-(2-hydroxyacetamido)imidazo[1,2-b]pyridazin-6-yl]-2-methoxypyridine-3-carboxamide] was tested, and the IC50 [1] was 0.096 µM and the IC50 [2] was 0.215 µM.
For COc1ncc(-c2ccc3nc(NC(=O)CO)cn3n2)cc1C(=O)NCc1cc(OC(F)(F)F)ccc1F [Example 35, N-{[2-fluoro-5-(trifluoromethoxy)phenyl]methyl}-5-[2-(2-hydroxyacetamido)imidazo[1,2-b]pyridazin-6-yl]-2-methoxypyridine-3-carboxamide], the IC50 [1] was 0.025 µM and the IC50 [2] was 0.13 µM.
For COc1ncc(-c2ccc3nc(NC(=O)C(C)(C)O)cn3n2)cc1C(=O)NCc1cc(OC(F)(F)F)ccc1F [Example 36, N-{[2-fluoro-5-(trifluoromethoxy)phenyl]methyl}-5-[2-(2-hydroxy-2-methylpropanamido)imidazo[1,2-b]pyridazin-6-yl]-2-methoxypyridine-3-carboxamide], the IC50 [1] was 0.048 µM and the IC50 [2] was 0.092 µM.
In the case of COc1ccc(F)c(CNC(=O)c2cc(-c3ccc4nc(NC(C)=O)cn4n3)c(C)nc2C)c1 [Example 37, 5-(2-acetamidoimidazo[1,2-b]pyridazin-6-yl)-N-(2-fluoro-5-methoxybenzyl)-2,6-dimethylnicotinamide], the IC50 [1] is reported as 0.067 µM and the IC50 [2] is reported as 0.208 µM.

Reference: patent publication US11440913B2, “Aminoimidazopyridazines as kinase inhibitors” (BRISTOL-MYERS SQUIBB COMPANY, priority 2017, dated 2022)
